According to ChEMBL document CHEMBL1148472, “Jatrophane diterpenes as modulators of multidrug resistance. Advances of structure-activity relationships and discovery of the potent lead pepluanin A” (J Med Chem, 2004):

Target: ATP-dependent translocase ABCB1 (Homo sapiens, UniProt P08183)
Assay: TP_TRANSPORTER: cell accumulation of daunomycin in human K562/R7 leukemic cells
Type: functional, cell-based

Chain of ATP-dependent translocase ABCB1 (P08183 whole entry): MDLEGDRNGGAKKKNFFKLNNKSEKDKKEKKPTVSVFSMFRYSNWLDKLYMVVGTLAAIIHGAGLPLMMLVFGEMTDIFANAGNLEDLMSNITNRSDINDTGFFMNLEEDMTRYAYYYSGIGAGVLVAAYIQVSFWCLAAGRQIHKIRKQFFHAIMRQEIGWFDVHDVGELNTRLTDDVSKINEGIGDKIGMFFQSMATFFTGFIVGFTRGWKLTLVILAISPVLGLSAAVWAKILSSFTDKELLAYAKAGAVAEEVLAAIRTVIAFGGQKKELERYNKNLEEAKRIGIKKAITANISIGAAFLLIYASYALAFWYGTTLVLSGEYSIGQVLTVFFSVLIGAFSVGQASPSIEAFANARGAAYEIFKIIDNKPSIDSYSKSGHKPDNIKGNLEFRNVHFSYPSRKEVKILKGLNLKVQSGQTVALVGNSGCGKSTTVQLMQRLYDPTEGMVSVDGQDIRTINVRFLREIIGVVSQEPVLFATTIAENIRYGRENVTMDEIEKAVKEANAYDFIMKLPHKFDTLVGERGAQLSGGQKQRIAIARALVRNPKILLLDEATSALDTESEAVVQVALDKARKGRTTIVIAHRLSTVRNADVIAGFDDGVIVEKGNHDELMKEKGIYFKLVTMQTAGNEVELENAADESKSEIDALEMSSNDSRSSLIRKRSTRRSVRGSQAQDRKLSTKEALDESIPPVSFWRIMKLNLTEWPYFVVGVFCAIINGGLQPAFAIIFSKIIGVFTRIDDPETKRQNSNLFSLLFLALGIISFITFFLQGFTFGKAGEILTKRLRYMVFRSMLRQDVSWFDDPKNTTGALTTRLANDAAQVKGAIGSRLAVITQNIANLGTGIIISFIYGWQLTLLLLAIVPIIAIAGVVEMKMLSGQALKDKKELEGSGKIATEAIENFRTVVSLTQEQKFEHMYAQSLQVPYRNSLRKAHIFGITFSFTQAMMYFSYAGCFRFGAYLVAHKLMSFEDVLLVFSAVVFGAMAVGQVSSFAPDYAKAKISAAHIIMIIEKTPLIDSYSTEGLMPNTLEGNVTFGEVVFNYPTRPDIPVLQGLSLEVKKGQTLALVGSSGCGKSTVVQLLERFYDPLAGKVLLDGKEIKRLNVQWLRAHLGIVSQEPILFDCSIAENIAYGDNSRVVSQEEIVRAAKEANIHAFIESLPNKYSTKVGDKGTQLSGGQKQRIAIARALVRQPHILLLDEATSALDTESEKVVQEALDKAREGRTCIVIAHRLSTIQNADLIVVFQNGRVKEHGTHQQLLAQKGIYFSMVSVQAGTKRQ

In the case of C=C1[C@@H](OC(C)=O)[C@@H](OC(C)=O)[C@@H](OC(=O)c2cccnc2)C(C)(C)/C=C/[C@H](C)[C@H](OC(C)=O)[C@@]2(O)C[C@@](C)(OC(C)=O)[C@H](OC(=O)c3ccccc3)[C@@H]2[C@H]1OC(C)=O [PEPLUANIN], the Activity is reported as “inhibitor [+]”.
